In PubChem BioAssay (NCI):
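Exposure lasted 48 hours, with cells grown in 96-well plates and compounds tested at five concentrations. TGI denotes the concentration required for complete inhibition of growth.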

What was measured:
Experiment in all cases: inhibition of tumour cell growth, NCI panel, 48 h
HCT-15 colon = system: HCT-15 colon
HS 578T breast = system: HS 578T breast
HCT-116 colon = system: HCT-116 colon
SNB-75 CNS = system: SNB-75 CNS
SF-295 CNS = system: SF-295 CNS
COLO 205 colon = system: COLO 205 colon
K-562 leukemia = system: K-562 leukemia
SF-268 CNS = system: SF-268 CNS
M14 melanoma = system: M14 melanoma
OVCAR-4 ovarian = system: OVCAR-4 ovarian
OVCAR-8 ovarian = system: OVCAR-8 ovarian
NCI-H226 lung = system: NCI-H226 lung
MDA-N = system: MDA-N
SK-MEL-28 melanoma = system: SK-MEL-28 melanoma
ACHN renal = system: ACHN renal
A549 NSCLC = system: A549 NSCLC
MALME-3M melanoma = system: MALME-3M melanoma
NCI/ADR-RES ovarian = system: NCI/ADR-RES ovarian
OVCAR-5 ovarian = system: OVCAR-5 ovarian
SNB-19 CNS = system: SNB-19 CNS
SF-539 CNS = system: SF-539 CNS
SR leukemia = system: SR leukemia
HCC-2998 colon = system: HCC-2998 colon
HT29 colon = system: HT29 colon
IGROV1 ovarian = system: IGROV1 ovarian
KM12 colon = system: KM12 colon
U251 CNS = system: U251 CNS
CCRF-CEM leukemia = system: CCRF-CEM leukemia
NCI-H23 lung = system: NCI-H23 lung
SW-620 colon = system: SW-620 colon
SK-OV-3 ovarian = system: SK-OV-3 ovarian
UO-31 renal = system: UO-31 renal
EKVX NSCLC = system: EKVX NSCLC
OVCAR-3 ovarian = system: OVCAR-3 ovarian
786-0 renal = system: 786-0 renal
CAKI-1 renal = system: CAKI-1 renal
NCI-H522 lung = system: NCI-H522 lung
HOP-62 NSCLC = system: HOP-62 NSCLC
BT-549 breast = system: BT-549 breast
MOLT-4 leukemia = system: MOLT-4 leukemia
SK-MEL-2 melanoma = system: SK-MEL-2 melanoma
SN12C renal = system: SN12C renal
RXF 393 renal = system: RXF 393 renal
HL-60(TB) leukemia = system: HL-60(TB) leukemia
UACC-62 melanoma = system: UACC-62 melanoma
MDA-MB-435 = system: MDA-MB-435
NCI-H460 lung = system: NCI-H460 lung
SK-MEL-5 melanoma = system: SK-MEL-5 melanoma
T-47D breast = system: T-47D breast
TK-10 renal = system: TK-10 renal
LOX IMVI melanoma = system: LOX IMVI melanoma
UACC-257 melanoma = system: UACC-257 melanoma
A498 renal = system: A498 renal
HOP-92 NSCLC = system: HOP-92 NSCLC
DU-145 prostate = system: DU-145 prostate
MDA-MB-231 breast = system: MDA-MB-231 breast
PC-3 prostate = system: PC-3 prostate
RPMI-8226 leukemia = system: RPMI-8226 leukemia

## CN(C)c1ccc(C(=O)NCCCCCCC(=O)NO)cc1
HCT-15 colon
  TGI: > 38.3 µM
HS 578T breast
  TGI: > 23.8 µM
HCT-116 colon
  TGI: 0.972 µM
SNB-75 CNS
  TGI: 2.2 µM
SF-295 CNS
  TGI: 1.82 µM
COLO 205 colon
  TGI: 0.832 µM
K-562 leukemia
  TGI: > 100 µM
SF-268 CNS
  TGI: 6.26 µM
M14 melanoma
  TGI: > 38 µM
OVCAR-4 ovarian
  TGI: > 25.3 µM
OVCAR-8 ovarian
  TGI: 2.46 µM
NCI-H226 lung
  TGI: 17.8 µM
MDA-N
  TGI: 0.908 µM
SK-MEL-28 melanoma
  TGI: 13.9 µM
ACHN renal
  TGI: 5.45 µM
A549 NSCLC
  TGI: 10.9 µM
MALME-3M melanoma
  TGI: > 100 µM
NCI/ADR-RES ovarian
  TGI: 0.728 µM
OVCAR-5 ovarian
  TGI: 1.49 µM
SNB-19 CNS
  TGI: > 100 µM
SF-539 CNS
  TGI: > 53 µM
SR leukemia
  TGI: > 76 µM
HCC-2998 colon
  TGI: 1.48 µM
HT29 colon
  TGI: > 32.5 µM
IGROV1 ovarian
  TGI: 2.69 µM
KM12 colon
  TGI: 35.4 µM
U251 CNS
  TGI: 3.64 µM
CCRF-CEM leukemia
  TGI: > 100 µM
NCI-H23 lung
  TGI: 3.66 µM
SW-620 colon
  TGI: > 21.5 µM
SK-OV-3 ovarian
  TGI: 1.54 µM
UO-31 renal
  TGI: 5.2 µM
EKVX NSCLC
  TGI: > 100 µM
OVCAR-3 ovarian
  TGI: 4.38 µM
786-0 renal
  TGI: > 30.4 µM
CAKI-1 renal
  TGI: 2.81 µM
NCI-H522 lung
  TGI: 0.739 µM
HOP-62 NSCLC
  TGI: 98.8 µM
BT-549 breast
  TGI: > 28.3 µM
MOLT-4 leukemia
  TGI: > 100 µM
SK-MEL-2 melanoma
  TGI: 0.932 µM
SN12C renal
  TGI: 2.03 µM
RXF 393 renal
  TGI: 1.73 µM
HL-60(TB) leukemia
  TGI: > 63.8 µM
UACC-62 melanoma
  TGI: 1.37 µM
MDA-MB-435
  TGI: 3.62 µM
NCI-H460 lung
  TGI: 5.21 µM
SK-MEL-5 melanoma
  TGI: 1.39 µM
T-47D breast
  TGI: 1.04 µM
TK-10 renal
  TGI: 2.7 µM
LOX IMVI melanoma
  TGI: 1.51 µM
UACC-257 melanoma
  TGI: 2.13 µM
A498 renal
  TGI: 3.07 µM

## COc1cc(OC)cc(-n2c(N)c(C#N)c3ccc([N+](=O)[O-])cc3c2=O)c1
HCT-15 colon
  TGI: > 100 µM
HS 578T breast
  TGI: 87.6 µM
HCT-116 colon
  TGI: > 100 µM
SNB-75 CNS
  TGI: 60.6 µM
COLO 205 colon
  TGI: > 100 µM
K-562 leukemia
  TGI: > 100 µM
HOP-92 NSCLC
  TGI: 44.9 µM
SF-268 CNS
  TGI: > 100 µM
OVCAR-4 ovarian
  TGI: 52 µM
OVCAR-8 ovarian
  TGI: 59.2 µM
NCI-H226 lung
  TGI: 51.6 µM
MDA-N
  TGI: > 100 µM
SK-MEL-28 melanoma
  TGI: > 100 µM
ACHN renal
  TGI: > 100 µM
A549 NSCLC
  TGI: > 100 µM
NCI/ADR-RES ovarian
  TGI: > 100 µM
DU-145 prostate
  TGI: 47.1 µM
SNB-19 CNS
  TGI: 40.4 µM
SR leukemia
  TGI: 55.8 µM
HCC-2998 colon
  TGI: > 100 µM
HT29 colon
  TGI: > 100 µM
KM12 colon
  TGI: > 100 µM
U251 CNS
  TGI: 52.4 µM
MDA-MB-231 breast
  TGI: 96.2 µM
NCI-H23 lung
  TGI: > 100 µM
SW-620 colon
  TGI: > 100 µM
UO-31 renal
  TGI: 74.9 µM
786-0 renal
  TGI: 39.5 µM
CAKI-1 renal
  TGI: 90.8 µM
BT-549 breast
  TGI: > 100 µM
SK-MEL-2 melanoma
  TGI: > 100 µM
SN12C renal
  TGI: 52.3 µM
PC-3 prostate
  TGI: > 100 µM
UACC-62 melanoma
  TGI: > 100 µM
MDA-MB-435
  TGI: > 100 µM
NCI-H460 lung
  TGI: > 100 µM
SK-MEL-5 melanoma
  TGI: > 100 µM
T-47D breast
  TGI: > 100 µM
TK-10 renal
  TGI: 69 µM
LOX IMVI melanoma
  TGI: > 100 µM
UACC-257 melanoma
  TGI: > 100 µM
RPMI-8226 leukemia
  TGI: > 100 µM
A498 renal
  TGI: 41.6 µM

## Cc1ccc2nc(-c3ccc(N)c(Br)c3)sc2c1
HCT-15 colon
  TGI: > 100 µM
HS 578T breast
  TGI: 43.6 µM
HCT-116 colon
  TGI: > 100 µM
SF-295 CNS
  TGI: > 100 µM
COLO 205 colon
  TGI: > 100 µM
K-562 leukemia
  TGI: > 100 µM
HOP-92 NSCLC
  TGI: 50.6 µM
SF-268 CNS
  TGI: > 100 µM
M14 melanoma
  TGI: > 100 µM
OVCAR-4 ovarian
  TGI: > 100 µM
OVCAR-8 ovarian
  TGI: > 100 µM
NCI-H226 lung
  TGI: > 100 µM
MDA-N
  TGI: > 100 µM
SK-MEL-28 melanoma
  TGI: > 100 µM
ACHN renal
  TGI: > 100 µM
A549 NSCLC
  TGI: > 100 µM
MALME-3M melanoma
  TGI: > 100 µM
NCI/ADR-RES ovarian
  TGI: > 100 µM
OVCAR-5 ovarian
  TGI: > 100 µM
DU-145 prostate
  TGI: > 100 µM
SNB-19 CNS
  TGI: > 100 µM
SF-539 CNS
  TGI: > 100 µM
SR leukemia
  TGI: 43.2 µM
HCC-2998 colon
  TGI: 14.8 µM
HT29 colon
  TGI: > 100 µM
KM12 colon
  TGI: 30.8 µM
U251 CNS
  TGI: > 100 µM
CCRF-CEM leukemia
  TGI: 45.7 µM
MDA-MB-231 breast
  TGI: 86.4 µM
NCI-H23 lung
  TGI: 96.9 µM
SK-OV-3 ovarian
  TGI: 88.4 µM
UO-31 renal
  TGI: 35.4 µM
EKVX NSCLC
  TGI: 58 µM
OVCAR-3 ovarian
  TGI: 40.1 µM
786-0 renal
  TGI: > 100 µM
CAKI-1 renal
  TGI: > 100 µM
NCI-H522 lung
  TGI: 47.7 µM
HOP-62 NSCLC
  TGI: 26.2 µM
BT-549 breast
  TGI: 35.9 µM
MOLT-4 leukemia
  TGI: 97.5 µM
SK-MEL-2 melanoma
  TGI: 73.4 µM
SN12C renal
  TGI: > 100 µM
PC-3 prostate
  TGI: > 100 µM
RXF 393 renal
  TGI: 50 µM
HL-60(TB) leukemia
  TGI: > 100 µM
UACC-62 melanoma
  TGI: > 100 µM
MDA-MB-435
  TGI: 64.1 µM
NCI-H460 lung
  TGI: 31.5 µM
SK-MEL-5 melanoma
  TGI: > 100 µM
T-47D breast
  TGI: 59.7 µM
LOX IMVI melanoma
  TGI: 30.4 µM
UACC-257 melanoma
  TGI: 72.2 µM
A498 renal
  TGI: > 100 µM
